Test results: paper PMC8877008, “Synthesis and Structure–Activity Relationship Studies of Benzimidazole-4,7-dione-Based P2X3 Receptor Antagonists as Novel Anti-Nociceptive Agents” (Molecules, 2022)

Experiments:
CYP 1A2 = biological target: T1, CYP 1A2 (Homo sapiens, UniProt P05177); experiment: CYP450 inhibition 1A2; assay type: in vitro ADME; details: compound 10 μM
T1 sequence (P05177 1-516): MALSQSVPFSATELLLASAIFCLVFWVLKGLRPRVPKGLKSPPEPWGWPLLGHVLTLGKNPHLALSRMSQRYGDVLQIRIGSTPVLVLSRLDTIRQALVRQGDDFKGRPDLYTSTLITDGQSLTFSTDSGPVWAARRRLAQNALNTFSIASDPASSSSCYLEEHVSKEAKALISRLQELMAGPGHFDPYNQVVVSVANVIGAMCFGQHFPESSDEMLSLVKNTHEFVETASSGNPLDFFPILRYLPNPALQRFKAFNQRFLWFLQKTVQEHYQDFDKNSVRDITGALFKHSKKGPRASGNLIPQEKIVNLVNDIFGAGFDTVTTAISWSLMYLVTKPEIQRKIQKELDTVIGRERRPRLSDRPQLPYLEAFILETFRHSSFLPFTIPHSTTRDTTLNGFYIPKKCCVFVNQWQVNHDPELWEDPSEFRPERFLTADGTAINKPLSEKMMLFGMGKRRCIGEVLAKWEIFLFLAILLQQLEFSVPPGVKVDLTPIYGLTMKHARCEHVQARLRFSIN

CYP 2D6 = CYP 2D6 (Homo sapiens, UniProt P10635); experiment: CYP450 inhibition 2D6; assay type: in vitro ADME; details: compound 10 μM
BBB-PAMPA permeability = assay type: in vitro ADME; details: UV/vis spectrophotometry
[1] = Metabolic stability in microsomal fraction, rat; assay type: in vitro ADME; details: rat microsomal fraction, read-out: Metabolic Stability (Microsomal Fr.) % remaining after 30 min
[2] = Metabolic stability in microsomal fraction, mouse; assay type: in vitro ADME
[3] = In vivo pharmacokinetic study in rats; details: male, SD, plasma, 10 mg/kg; oral administration, 10 mpk, rat
Procedure: Experiments were used to determine any changes during in vivo pharmacokinetics, such as absorption, distribution, metabolism, and excretion of compounds, which are correlated with drug efficacy and toxicity. Pharmacokinetic experiments using rats were mainly conducted using 8-week-old SD male rats (Osan, Kyungki-Do, Korea). A tube was inserted into the femoral vein, the intravenous administration group was administered through the tube, and the oral administration group was administered the drug orally using oral gavage (1–2 mL/kg). Blood collection for the drug was performed at fixed times ([…], 0.25, 0.5, 1, 2, 4, 6, 8, and 24 h) from the time when the tube was inserted into the femoral vein. Blood was centrifuged to separate plasma, and plasma and urine samples were pretreated (minimum 0.5 ng/mL and maximum 8000 ng/mL) using an appropriate organic solvent. For sample preparation, the working solution of rat blank plasma was spiked, followed by preparation of plasma samples with solid phase extraction. Next, the concentration of 100 μL eluent was analyzed by LC–MS/MS (Mass spectrometry 4000 Qtrap with HPLC, Agilent 1200, Santa Clara, CA, USA). The noncompartmental pharmacokinetic parameters were calculated from the blood concentration–time data of the drug analyzed using the noncompartmental analysis model of WinNonlin (Pharsight ver 6.4, Princeton, NJ, USA).

SNL rats = experiment: Antiallodynic effect, spinal nerve ligation (SNL) neuropathic pain model, von Frey; assay type: in vivo, male Sprague-Dawley rats; details: intravenous 12 mg/kg, von Frey filaments, five rats
Excerpt: The experimental protocol (CNUHIACUC-20039) was approved by the Institutional Animal Care and Use Committee of Chonnam National University Hospital. Animal models of neuropathic pain (NP) were constructed by spinal nerve ligation (SNL) or chemotherapeutics injection (chemotherapy-induced peripheral neuropathy, CIPN) in male Sprague-Dawley rats (weight, 150–180 g). Briefly, under sevoflurane anesthesia, the left L5 and L6 spinal nerves near the vertebral column were separated and tightly ligated using 6-0 silk. Cisplatin was administered intraperitoneally at 2 mg/kg once daily for 4 days. The paw withdrawal threshold (PWT) to mechanical stimuli was measured using calibrated 0.41–15.2 g von Frey filaments (Stoelting, Wood Dale, IL, USA), as described previously. […] The antiallodynic effects of the intravenous vehicle and LDD4692 (3mg/rat) were evaluated and expressed as the percentage of the maximal possible effect (% MPE). % MPE = [(post drug PWT − post injured baseline PWT)/(cutoff PWT − post injured baseline PWT)] × 100
For the analysis of antagonistic activities, all data were calculated by Origin Pro 9.1 software provided by Originlab and the fitting of graphs was proceeded by the growth/sigmoidal and hill1 process within no weights for data selections. For the analysis of the behavioral assessments of pain models, all data are expressed as mean ± SEM. […]

CYP 2C19 = CYP 2C19 (Homo sapiens, UniProt P33261); experiment: CYP450 inhibition 2C19; assay type: in vitro ADME; details: compound 10 μM
Chain of CYP 2C19 (P33261 whole entry): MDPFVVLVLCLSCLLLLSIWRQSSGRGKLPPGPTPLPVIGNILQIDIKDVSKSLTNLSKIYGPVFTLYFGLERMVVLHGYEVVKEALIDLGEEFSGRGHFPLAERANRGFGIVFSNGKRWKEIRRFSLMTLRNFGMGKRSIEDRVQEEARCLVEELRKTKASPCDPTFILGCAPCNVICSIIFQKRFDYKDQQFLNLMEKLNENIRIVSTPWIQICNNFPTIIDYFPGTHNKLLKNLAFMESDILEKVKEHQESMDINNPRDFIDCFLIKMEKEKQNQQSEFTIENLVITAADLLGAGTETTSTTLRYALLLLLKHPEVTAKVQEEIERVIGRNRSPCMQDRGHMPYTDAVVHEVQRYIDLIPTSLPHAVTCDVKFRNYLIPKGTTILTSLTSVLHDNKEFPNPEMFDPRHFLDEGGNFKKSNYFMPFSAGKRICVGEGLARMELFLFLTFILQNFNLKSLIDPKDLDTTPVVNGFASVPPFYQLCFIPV

Chain of CYP 2D6 (P10635 whole entry): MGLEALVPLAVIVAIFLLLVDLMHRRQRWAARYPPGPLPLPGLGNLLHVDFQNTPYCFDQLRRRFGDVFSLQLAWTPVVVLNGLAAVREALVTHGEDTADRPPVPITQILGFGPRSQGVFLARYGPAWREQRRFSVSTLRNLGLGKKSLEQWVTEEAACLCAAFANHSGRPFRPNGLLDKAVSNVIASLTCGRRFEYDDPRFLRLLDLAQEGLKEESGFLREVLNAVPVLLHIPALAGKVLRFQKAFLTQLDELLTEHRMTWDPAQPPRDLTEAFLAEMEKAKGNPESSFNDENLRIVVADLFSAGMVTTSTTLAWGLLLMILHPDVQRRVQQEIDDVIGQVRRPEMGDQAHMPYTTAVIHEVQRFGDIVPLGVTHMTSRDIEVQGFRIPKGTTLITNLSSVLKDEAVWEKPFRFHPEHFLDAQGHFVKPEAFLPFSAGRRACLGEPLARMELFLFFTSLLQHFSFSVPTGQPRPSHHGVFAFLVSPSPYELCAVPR

O=C1C(NC2CCN(C(=O)c3ccc(F)c(F)c3)CC2)=C(Cl)C(=O)c2[nH]c(C(F)(F)F)nc21 [14h, 6-Chloro-5-((1-(3,4-difluorobenzoyl)piperidin-4-yl)amino)-2-(trifluoromethyl)-1H-benzo[d]imidazole-4,7-dione]
CYP450 inhibition 1A2 (CYP 1A2): 6.78% | CYP450 inhibition 2D6 (CYP 2D6): 7.74% | BBB-PAMPA logPe (BBB-PAMPA permeability): <−6.000 logPe | remaining at 0.5 h [1]: > 99% | remaining at 0.5 h ([2]; microsomal fraction, species not given, lowest of human, rat, mouse is mouse, read-out: Metabolic stability, % remaining after 30 min incubation (summary)): > 92% | remaining at 0.5 h ([2]; mouse, mouse microsomal fraction, read-out: Metabolic Stability (Microsomal Fr.) % remaining after 30 min): 92.8% | AUC(0-inf) [3]: 250 ng·h/mL | Cmax [3]: 40 ng/mL | Tmax [3]: 0.33 h | half-life [3]: 7.58 h | Maximal possible effect (% MPE), antiallodynic (SNL rats): 54% | CYP450 inhibition 2C19 (CYP 2C19): 25.6%
